Results taken from US20200129531A1, “USE OF WITHANIA SOMNIFERA EXTRACT TO PROTECT AGAINST AIR POLLUTION RELATED DISEASES” (DSM IP Assets B.V., priority 2017, published 2020).

Assays:
[1] = tested on: IL-6; assay: IL-6 secretion of BEAS-2B cells treated with Diesel Particulate Matter; format: cell-based, human; conditions: for IL-6 / IL-6 % of PM + DMSO: 24 h
Description: (§1) The human bronchial epithelial cell line BEAS-2B was from ATCC (American Type Culture Collection, Manassas, Va.) and cultured in Bronchial Epithelial cell Growth Medium (BEGM, Lonza, Wakersville, Md.) in CellBIND® surface plastic flasks (Corning Inc., Corning, N.Y.). The adenocarcinomic human alveolar basal epithelial A549 cell line was obtained from ATCC and cultured in Kaighn's Modification of Ham's F-12 Medium (F-12K medium) (Life Technologies, USA), supplemented with 10% FBS (Sigma, Saint-Louis, Mo.). These cells were cultured at 37° C. in a humidified atmosphere containing 5% CO2.
(§2) BEAS-2B cells were seeded in 12-well CellBIND® surface culture plates (Corning Inc.) at 3 to 4×10^5 cells per well. A549 cells were seeded in 12-well plates at 2×10^5 cells per well.
(§3) Diesel Particulate Matter (Standard Reference Material SRM 1650b, National Institute of Standards & Technology, NIST, Gaithersburg, Md.) at 80 mg/ml DMSO (100%) were sonicated for 5 min and thereafter diluted 400 fold in medium. This dilution was twofold further diluted for the assay.
(§4) After 24 h, cells were treated with the diluted Diesel Particulate Matter at 100 μg/ml and in the presence of different concentrations of Withania somnifera extracts, other plant extracts, fractions and compounds as indicated. The final DSMO concentrations were 0.175%.
(§5) Untreated cells or cells treated with 0.175% DMSO were used as controls. After 24 h, cell supernatants were collected.
(§6) The concentrations of IL-6 and IL-8 in the supernatants were determined by Luminex kits (BIO-RAD Laboratories, Hercules, Calif.) and used in the LiquiChip Workstation IS 200 (Qiagen, Hilden, Germany). The data were evaluated with the LiquiChip Analyser software (Qiagen).

[2] = tested on: IL-6; assay: IL-6 secretion of A549 cells treated with Diesel Particulate Matter; format: cell-based, human; conditions: for IL-6 / IL-6 % of PM + DMSO: Table 5, A549, 24 h
Description: as §1, §2, §3, §4, §5, §6

[3] = tested on: IL-8; assay: IL-8 secretion of A549 cells treated with Diesel Particulate Matter; format: cell-based, human; conditions: for effect on IL-8 secretion (in words): A549, PM-induced; for IL-8 / IL-8 % of PM + DMSO: Table 7, A549, 24 h
Description: as §1, §2, §3, §4, §5, §6

[4] = tested on: MCP-1; assay: MCP-1 secretion of A549 cells treated with Diesel Particulate Matter; format: cell-based, human; conditions: for effect on PM-induced MCP-1 secretion (in words): A549; for MCP-1 / MCP-1 % of PM + DMSO: Table 9, A549, 24 h
Description: The human bronchial epithelial cell line BEAS-2B was from ATCC (American Type Culture Collection, Manassas, Va.) and cultured in Bronchial Epithelial cell Growth Medium (BEGM, Lonza, Wakersville, Md.) in CellBIND® surface plastic flasks (Corning Inc., Corning, N.Y.). The adenocarcinomic human alveolar basal epithelial A549 cell line was obtained from ATCC and cultured in Kaighn's Modification of Ham's F-12 Medium (F-12K medium) (Life Technologies, USA), supplemented with 10% FBS (Sigma, Saint-Louis, Mo.). These cells were cultured at 37° C. in a humidified atmosphere containing 5% CO2. BEAS-2B cells were seeded in 12-well CellBIND® surface culture plates (Corning Inc.) at 3 to 4×10^5 cells per well. A549 cells were seeded in 12-well plates at 2×10^5 cells per well. […] This dilution was twofold further diluted for the assay. After 24 h, cells were treated with the diluted Diesel Particulate Matter at 100 μg/ml and in the presence of different concentrations of Withania somnifera extracts, other plant extracts, fractions and compounds as indicated. The final DSMO concentrations were 0.175%. Untreated cells or cells treated with 0.175% DMSO were used as controls. After 24 h, cell supernatants were collected.

[5] = tested on: PGE2; assay: PGE2 secretion of BEAS-2B cells treated with Diesel Particulate Matter; format: cell-based, human; conditions: for effect on PGE2 secretion compared to PM with DMSO (in words): PM-treated BEAS-2B; for PGE2 / PGE2 % of PM + DMSO: Table 10, BEAS-2B, 24 h
Description: as §1, §2, §3, §4, §5
Secreted PGE2 was determined by Enzyme Immuno Assay (EIA) (Cayman Chemicals, Ann Harbor, […].).

[6] = tested on: NQO1; assay: Endogenous Nrf2 activation assay using BEAS-2B cells: NQO1 mRNA expression; format: cell-based, human; conditions: 0.1% DMSO set to 1
Method: (§7) The human bronchial epithelial cell line BEAS-2B was from ATCC (American Type Culture Collection, Manassas, Va.) and cultured in Bronchial Epithelial cell Growth Medium (BEGM, Lonza, Wakersville, Md.) in CellIBIND® surface plastic flasks (Corning Inc., Corning, N.Y.). BEAS-2B cells were seeded in 6-well CellIBIND® surface culture plates (Corning Inc.) at 1×10^6 cells per well and incubated at 37° C. with 5% CO2 for 24 hours.
(§8) A 100 mM R-Sulforaphane stock solution was prepared in DMSO (ABCAM, Cat. No. ab141971, Lot GR303041-2). The R-Sulforaphane stock was diluted in DMSO to obtain the desired final concentrations. Withania somnifera extract (NIG-018911) stock solution was prepared in DMSO.
(§9) After 24 h, cells were treated with different concentrations of Withania somnifera extract (5 μg/ml, 10 μg/ml, 25 μg/ml), R-Sulforaphane (2 μM, 5 μM, 10 μM) or DMSO (0.1%) and incubated at 37° C. with 5% CO2 for 4 hrs or 24 hrs. Each treatment was done in triplicate.
(§10) RNA extraction, cDNA synthesis and TaqMan based real-time PCR: After 4 hrs and 24 hrs cells were harvested in RLT buffer, RNA isolation was done using the RNeasy Mini Kit from Qiagen (Cat. No. 74106). cDNA was prepared with 2500 ng total RNA using SuperScript™ First-Strand Synthesis System for RT-PCR (Invitrogen, Cat. No. 11904-018)
(§11) In a 20 μL PCR reaction, a total input of […] of cDNA was amplified in the ABI 7900 HT real-time PCR System (Applied Biosystems) using the TaqMan® Fast Advanced Master Mix (LifeTechnologies Cat. No. 4444557), 50 nM primers, and 100 nM probe (VIC-TAMRA-labeled) for the 18S rRNA internal control
(§12) and 300 nM primers and 100 nM probe (FAM-TAMRA-labeled) for the gene of interest human
(§13) The thermal cycling profile consisted of 2 min at 50° C. for Uracil-N-glycosylase activation, 95° C. for 20 seconds for polymerase activation followed by 40 cycles 95° C. for 1 second and primer annealing at 60° C. for 20 seconds.
(§14) Relative gene expression was performed by subtracting threshold cycles (CT) for ribosomal RNA from the CT of the targeted gene (ΔCT). Relative mRNA levels were then calculated as 2^−ΔΔCT, where ΔΔCT refers to the ΔCT of […].

[7] = tested on: HMOX; assay: Endogenous Nrf2 activation assay using BEAS-2B cells: HMOX mRNA expression; format: cell-based, human; conditions: 0.1% DMSO set to 1
Method: as §7, §8, §9, §10, §11, §12, §13, §14

[8] = tested on: Nrf2; assay: Luciferase reporter assay using H411E-ARE8L cells (Nrf2 activation); conditions: for Nrf-2 activity, Normalized data: R-sulforaphane set to 1.0, DMSO 0
Method: Luciferase Reporter Assay Using H411E-ARE8L Cells:
The medium for H411E-ARE8L cells was Dulbecco's Modified Eagle Medium (DMEM) high glucose containing heat inactivated 10% fetal bovine Serum (FBS). The media was exchanged every two to three-days. The DMEM assay medium used charcoal treated FBS (DMEMct). The transactivation assay was performed in 96 well plates. The plates were seeded with approximately 40′000 cells per well in 100 μl DMEMct and incubated over night at 37° C. Then the test compounds were diluted in DMEDct and given to the cells as described below. The cells were incubated for at least further 16 h at 37° C. and 5% CO2. Cells were equilibrated to room temperature. Lysis of the cells was done by adding 100 μL lysis solution, Steady-Glo© luciferase buffer according to the manufacturer (Promega) containing 0.5 mM DTT per well and incubated for 10 min at room temperature with gentle shaking. The luminescence was measured within 2 hours after incubation on a luminometer (Mithras, Berthold Technologies).
The negative control were cells in 0.5% DMSO.
All extracts, fractions and pure compounds were tested for concentrations that induce toxicity. Non-toxic concentrations were then selected for treating cells as describes in the methods section.

[9] = Table 3, 5 μg/ml + PM 100 μg/ml
[10] = Table 3, 10 μg/ml + PM 100 μg/ml

## CO[C@H]1CC(=O)[C@]2(C)[C@H]3CC[C@]4(C)[C@@H]([C@H](C)[C@H]5CC(C)=C(CO)C(=O)O5)CC[C@H]4[C@@H]3C[C@H]3O[C@]32[C@H]1O [Quresimine A, quresimine A]
[1]; [9]
  IL-6: 23.5 pg/mL
  IL-6 % of PM + DMSO: 94%
[2]; A549
  effect on PM-induced IL-6 secretion (in words): decrease
[2]; 5 μg/ml + PM 100 μg/ml
  IL-6: 9.5 pg/mL
  IL-6 % of PM + DMSO: 75%
[3]
  effect on IL-8 secretion (in words): significant inhibition
[3]; 5 μg/ml + PM 100 μg/ml
  IL-8: 242 pg/mL
  IL-8 % of PM + DMSO: 80%
[4]
  effect on PM-induced MCP-1 secretion (in words): low, but non-significant decrease
[4]; 5 μg/ml + PM 100 μg/ml
  MCP-1: 796.7 pg/mL
  MCP-1 % of PM + DMSO: 92%
[5]
  effect on PGE2 secretion compared to PM with DMSO (in words): borderline
[5]; 5 μg/ml + PM 100 μg/ml
  PGE2: 33.2 pg/mL
  PGE2 % of PM + DMSO: 87%

## C[S@@+]([O-])CCCCN=C=S [R-Sulforaphane, R-sulforaphane]
[6]; 2 μM
  Relative mRNA expression level at 4 h (NQO1): 1.60
  Relative mRNA expression level at 24 h (NQO1): 4.66
[6]; 5 μM
  Relative mRNA expression level at 4 h (NQO1): 2.26
  Relative mRNA expression level at 24 h (NQO1): 7.62
[6]; 10 μM
  Relative mRNA expression level at 4 h (NQO1): 1.78
  Relative mRNA expression level at 24 h (NQO1): 8.77
[7]; 2 μM
  Relative mRNA expression level at 4 h (HMOX): 9.48
  Relative mRNA expression level at 24 h (HMOX): 2.63
[7]; 5 μM
  Relative mRNA expression level at 4 h (HMOX): 22.44
  Relative mRNA expression level at 24 h (HMOX): 5.23
[7]; 10 μM
  Relative mRNA expression level at 4 h (HMOX): 27.43
  Relative mRNA expression level at 24 h (HMOX): 7.12
[1]; concentration not given
  effect on PM-induced IL-6 secretion (in words): significantly reduced
[2]; A549, concentration not given
  reduction of PM-induced IL-6 secretion: about twofold
[3]; A549, concentration not given
  reduction of PM-induced cytokine secretion (IL-8 paragraph): twofold
[4]
  effect on PM-induced MCP-1 secretion (in words): clear inhibition
[8]; Conc. final 4.55 μg/ml
  Nrf-2 activity, Average: 29384 relative units of luciferase fluorescence
  Nrf-2 activity, Normalized data: 1.0000

## 12-deoxywithastramonolide
[1]; [10]
  IL-6: 51.9 pg/mL
  IL-6 % of PM + DMSO: 207%
[2]; A549
  effect on PM-induced IL-6 secretion (in words): decrease
[2]; 10 μg/ml + PM 100 μg/ml
  IL-6: 9.5 pg/mL
  IL-6 % of PM + DMSO: 75%
[3]
  effect on IL-8 secretion (in words): significant inhibition
[3]; 10 μg/ml + PM 100 μg/ml
  IL-8: 208.3 pg/mL
  IL-8 % of PM + DMSO: 69%
[4]
  effect on PM-induced MCP-1 secretion (in words): significant decrease
[4]; 10 μg/ml + PM 100 μg/ml
  MCP-1: 646.3 pg/mL
  MCP-1 % of PM + DMSO: 74%
[5]
  effect on PGE2 secretion compared to PM with DMSO (in words): significant decrease
[5]; 10 μg/ml + PM 100 μg/ml
  PGE2: 28.3 pg/mL
  PGE2 % of PM + DMSO: 74%
[8]; Conc. final 22.73 μg/ml
  Nrf-2 activity, Average: 33869 relative units of luciferase fluorescence
  Nrf-2 activity, Normalized data: 1.1701

## CC1=C(C)C(=O)O[C@@H]([C@](C)(O)[C@H]2CC[C@H]3[C@@H]4[C@@H]5O[C@@H]5[C@@]5(O)CC=CC(=O)[C@]5(C)[C@H]4CC[C@]23C)C1 [Withanolide A, withanolide A]
[1]; [10]
  IL-6: 32.8 pg/mL
  IL-6 % of PM + DMSO: 131%
[2]; A549
  effect on PM-induced IL-6 secretion (in words): decrease
[2]; 10 μg/ml + PM 100 μg/ml
  IL-6: 15.2 pg/mL
  IL-6 % of PM + DMSO: 120%
[3]
  effect on IL-8 secretion (in words): no effect
[3]; 10 μg/ml + PM 100 μg/ml
  IL-8: 313.7 pg/mL
  IL-8 % of PM + DMSO: 103%
[4]
  effect on PM-induced MCP-1 secretion (in words): low, but non-significant decrease
[4]; 10 μg/ml + PM 100 μg/ml
  MCP-1: 790.7 pg/mL
  MCP-1 % of PM + DMSO: 91%
[5]; 10 μg/ml + PM 100 μg/ml
  PGE2: 34.7 pg/mL
  PGE2 % of PM + DMSO: 91%
[8]; Conc. final 22.73 μg/ml
  Nrf-2 activity, Average: 4677 relative units of luciferase fluorescence
  Nrf-2 activity, Normalized data: 0.0629
